# Measurements as given in ChEMBL document CHEMBL2146422, “Viequeamide A, a cytotoxic member of the kulolide superfamily of cyclic depsipeptides from a marine button cyanobacterium” (2012).
# Calls of active or inactive are those of the source. No cut-off for these calls is given here. *1 amine or outer side, *2 acyl side, *3 side chain or, on linkers, in order; H or OH if unused. Where a SMILES comes first, the peptide text is derived from it. Bridges are numbered along the chain shown (N, C = ends). [ ]: non-standard residue; d: D form. X1 = C#CCCC[C@H](O[*:2])C(C)(C)C(=O)[*:1]; X3 = C=CCCC[C@H](O[*:2])C(C)(C)C(=O)[*:1]; X2 = CCCCC[C@H](O[*:2])C(C)(C)C(=O)[*:1]; Hmp(2R,3S) = CC[C@H](C)[C@@H](O)C(=O)O; PhLac = O=C(O)[C@@H](O)Cc1ccccc1; NMeV = CN[C@H](C(=O)O)C(C)C; NMeA = CN[C@@H](C)C(=O)O
# Tests used:
# NCI-H460 [1] = experiment: Cytotoxicity against human H460 cells at 30 ug/mL after 48 hrs by MTT assay; type: functional, cell-based
# NCI-H460 [2] = experiment: Cytotoxicity against human H460 cells after 48 hrs by MTT assay; type: functional; conditions: NCI-H460, 48 h, read-out: LD50 (the source's name)
Compound,Activity (NCI-H460 [1]),CC50 (NCI-H460 [2]) [nM]
CCCCC[C@@H]1OC(=O)[C@H](C(C)C)NC(=O)[C@H](C)N(C)C(=O)[C@@H]2CCCN2C(=O)[C@H](Cc2ccccc2)OC(=O)[C@H](C(C)C)N(C)C(=O)[C@H](C(C)C)NC(=O)C1(C)C (V[NMeV][PhLac]P[NMeA]V; linker N-C via X2),inactive,
C=CCCC[C@@H]1OC(=O)[C@H](C(C)C)NC(=O)[C@H](C)N(C)C(=O)[C@@H]2CCCN2C(=O)[C@H](Cc2ccccc2)OC(=O)[C@H](C(C)C)N(C)C(=O)[C@H](C(C)C)NC(=O)C1(C)C (V[NMeV][PhLac]P[NMeA]V; linker N-C via X3),inactive,
"C#CCCC[C@@H]1OC(=O)[C@H]([C@@H](C)O)NC(=O)[C@H](C(C)C)N(C)C(=O)[C@@H]2CCCN2C(=O)[C@@H]([C@@H](C)CC)OC(=O)[C@H](C(C)C)N(C)C(=O)[C@H](C(C)C)NC(=O)C1(C)C [VIEQUEAMIDE A] (V[NMeV][Hmp(2R,3S)]P[NMeV]T; linker N-C via X1)",,60
C#CCCC[C@@H]1OC(=O)[C@H](C(C)C)NC(=O)[C@H](C)N(C)C(=O)[C@@H]2CCCN2C(=O)[C@H](Cc2ccccc2)OC(=O)[C@H](C(C)C)N(C)C(=O)[C@H](C(C)C)NC(=O)C1(C)C (V[NMeV][PhLac]P[NMeA]V; linker N-C via X1),inactive,
